Counter-ions that a name gives are not always drawn.
Experiment: Phase 1 dose escalation study in healthy postmenopausal women, treatment related AEs, oral daily for 7 days
Assay type: in vivo
Experimental: The subjects were 40-75 years old with BMI of 18.0-30 kg/m^2. Subjects having evidence of clinically relevant pathology, increased risk of stroke or of history venous thromboembolic events, or use of concomitant medication less than 14 days prior to admission to clinical research center (paracetamol allowed up to 3 days prior) were excluded.
The subjects were treated with placebo or at least one oral dose daily after a light breakfast for 7 days at dose levels of 200 mg, 500 mg, 750 mg and 1000 mg, respectively.

For `CCNCCc1ccc(CN(CC)c2cc(OC)ccc2[C@@H]2CCc3cc(O)ccc3C2)cc1` [RAD1901, (6R)-6-(2-(N-(4-(2-(ethylamino)ethyl)benzyl)-N-ethylamino)-4-methoxyphenyl)-5,6,7,8-tetrahydronaphthalen-2-ol dihydrochloride], the “Abdominal discomfort AE, %” value (200 mg Gr1) was “(20) %”, the “Abdominal distension AE, %” value (200 mg Gr1) was “(7) %” and the “Abdominal pain AE, %” value (200 mg Gr1) was “(13) %”. For the same compound, the “Dizziness AE, %” value (200 mg Gr1) was “(7) %”, the “Dyspepsia AE, %” value (200 mg Gr1) was “(20) %” and the “Flatulance AE, %” value (200 mg Gr1) was “(13) %”. For the same compound, the “Headache AE, %” value (200 mg Gr1) was “(20) %”, the “Hiccups AE, %” value (200 mg Gr1) was “(7) %” and the “Hot flush AE, %” value (200 mg Gr1) was “(13) %”. The “Myalgia AE, %” value (200 mg Gr1) was “(13) %”, the “Nausea AE, %” value (200 mg Gr1) was “(33) %” and the “Odynophagia AE, %” value (200 mg Gr1) was “(13) %”. The “Salivary hyper-secretion AE, %” value (200 mg Gr1) was “(13) %”, the “Sensation of a foreign body AE, %” value (200 mg Gr1) was “(13) %” and the “Vomiting AE, %” value (200 mg Gr1) was “(13) %”. For the same compound, the “Abdominal distension AE, %” value (200 mg Gr2) was “(7) %”, the “Abdominal pain AE, %” value (200 mg Gr2) was “(13) %” and the “Myalgia AE, %” value (200 mg Gr2) was “(7) %”. For the same compound, the “Oesophageal pain AE, %” value (200 mg Gr2) was “(13) %”, the “Abdominal distension AE, %” value (500 mg Gr1) was “(7) %” and the “Abdominal pain AE, %” value (500 mg Gr1) was “(21) %”. The “Diarrhoea AE, %” value (500 mg Gr1) was “(21) %”, the “Dizziness AE, %” value (500 mg Gr1) was “(14) %” and the “Dyspepsia AE, %” value (500 mg Gr1) was “(36) %”. The “Dysphagia AE, %” value (500 mg Gr1) was “(7) %”, the “Flatulance AE, %” value (500 mg Gr1) was “(14) %” and the “Headache AE, %” value (500 mg Gr1) was “(7) %”. The “Hiccups AE, %” value (500 mg Gr1) was “(29) %”, the “Hot flush AE, %” value (500 mg Gr1) was “(43) %” and the “Nausea AE, %” value (500 mg Gr1) was “(21) %”. For the same compound, the “Odynophagia AE, %” value (500 mg Gr1) was “(7) %”, the “Oesophageal pain AE, %” value (500 mg Gr1) was “(7) %” and the “Salivary hyper-secretion AE, %” value (500 mg Gr1) was “(14) %”. For the same compound, the “Sensation of a foreign body AE, %” value (500 mg Gr1) was “(7) %”, the “Vomiting AE, %” value (500 mg Gr1) was “(7) %” and the “Dyspepsia AE, %” value (500 mg Gr2) was “(14) %”. For the same compound, the “Dysphagia AE, %” value (500 mg Gr2) was “(14) %”, the “Headache AE, %” value (500 mg Gr2) was “(7) %” and the “Myalgia AE, %” value (500 mg Gr2) was “(7) %”. The “Nausea AE, %” value (500 mg Gr2) was “(14) %”, the “Odynophagia AE, %” value (500 mg Gr2) was “(7) %” and the “Oesophageal pain AE, %” value (500 mg Gr2) was “(21) %”. The “Vomiting AE, %” value (500 mg Gr2) was “(36) %”, the “Vomiting AE, %” value (500 mg Gr3) was “(7) %” and the “Abdominal discomfort AE, %” value (750 mg Gr1) was “(13) %”. For the same compound, the “Abdominal distension AE, %” value (750 mg Gr1) was “(13) %”, the “Abdominal pain AE, %” value (750 mg Gr1) was “(13) %” and the “Dizziness AE, %” value (750 mg Gr1) was “(13) %”. For the same compound, the “Dyspepsia AE, %” value (750 mg Gr1) was “(50) %”, the “Dysphagia AE, %” value (750 mg Gr1) was “(38) %” and the “Flatulance AE, %” value (750 mg Gr1) was “(13) %”. The “Headache AE, %” value (750 mg Gr1) was “(38) %”, the “Hiccups AE, %” value (750 mg Gr1) was “(25) %” and the “Hot flush AE, %” value (750 mg Gr1) was “(25) %”. For the same compound, the “Myalgia AE, %” value (750 mg Gr1) was “(13) %”, the “Nausea AE, %” value (750 mg Gr1) was “(25) %” and the “Oesophageal pain AE, %” value (750 mg Gr1) was “(13) %”. The “Salivary hyper-secretion AE, %” value (750 mg Gr1) was “(25) %”, the “Abdominal discomfort AE, %” value (750 mg Gr2) was “(13) %” and the “Dysphagia AE, %” value (750 mg Gr2) was “(13) %”. For the same compound, the “Nausea AE, %” value (750 mg Gr2) was “(13) %”, the “Vomiting AE, %” value (750 mg Gr2) was “(25) %” and the “Abdominal distension AE, %” value (1000 mg Gr1) was “(29) %”. The “Abdominal pain AE, %” value (1000 mg Gr1) was “(14) %”, the “Diarrhoea AE, %” value (1000 mg Gr1) was “(43) %” and the “Dizziness AE, %” value (1000 mg Gr1) was “(14) %”. For the same compound, the “Dyspepsia AE, %” value (1000 mg Gr1) was “(14) %”, the “Headache AE, %” value (1000 mg Gr1) was “(29) %” and the “Hiccups AE, %” value (1000 mg Gr1) was “(29) %”. The “Hot flush AE, %” value (1000 mg Gr1) was “(14) %”, the “Nausea AE, %” value (1000 mg Gr1) was “(57) %” and the “Odynophagia AE, %” value (1000 mg Gr1) was “(14) %”. The “Oesophageal pain AE, %” value (1000 mg Gr1) was “(14) %”, the “Salivary hyper-secretion AE, %” value (1000 mg Gr1) was “(29) %” and the “Sensation of a foreign body AE, %” value (1000 mg Gr1) was “(57) %”. The “Abdominal pain AE, %” value (1000 mg Gr2) was “(14) %”, the “Diarrhoea AE, %” value (1000 mg Gr2) was “(14) %” and the “Dyspepsia AE, %” value (1000 mg Gr2) was “(14) %”. For the same compound, the “Nausea AE, %” value (1000 mg Gr2) was “(29) %”, the “Odynophagia AE, %” value (1000 mg Gr2) was “(14) %” and the “Oesophageal pain AE, %” value (1000 mg Gr2) was “(14) %”. For the same compound, the “Vomiting AE, %” value (1000 mg Gr2) was “(43) %”.
